Like-named read-outs stand apart in the source and are kept apart here.
System: mTOR (phospho-S6, pS6)
Test: In vitro mTOR inhibition by phospho-S6 (pS6) assay in LPS-stimulated splenocytes
Type: cell-based, C57BL/6 mice
Conditions: for IC50: read-out: Approximate IC50
[1] = Mus musculus, Splenocyte, half maximal inhibitory concentration of pS6 inhibition in IA/IE+ cells, splenocytes, phospho-S6 assay
[2] = half maximal inhibitory concentration of pS6 inhibition in IA/IE+ cells, splenocytes, phospho-S6 assay

Compound	IC50 [1] [nM]	IC50 [2] [nM]	further results
CC(C)[C@H](N)C(=O)N[C@@H](CCCNC(N)=O)C(=O)N1CCN(c2ccc(-n3c(=O)ccc4cnc5ccc(-c6cnc7ccccc7c6)cc5c43)cc2C(F)(F)F)CC1 [Compound 105, Torin-1-ZV]	210		pS6 inhibition IC50 relative to Torin-1-piperazine (Compound 98) (splenocytes, pS6 assay): approximately equivalent
CO[C@H]1CCOCC(=O)C(=O)N2CCCC[C@H]2C(=O)O[C@H]([C@H](C)C[C@@H]2CC[C@@H](OCCN)[C@H](OC)C2)CC(=O)[C@H](C)/C=C(\C)[C@@H](O)[C@@H](OC)C(=O)[C@@H](C)C[C@H](C)/C=C/C=C/C=C/1C [Compound 108, Everolimus-amine]	10		fold reduction in IC50 potency (pS6) relative to Everolimus (splenocytes, pS6 assay): 10 fold
CO[C@H]1CCOCC(=O)C(=O)N2CCCC[C@H]2C(=O)O[C@H]([C@H](C)C[C@@H]2CC[C@@H](OCCN=[N+]=[N-])[C@H](OC)C2)CC(=O)[C@H](C)/C=C(\C)[C@@H](O)[C@@H](OC)C(=O)[C@@H](C)C[C@H](C)/C=C/C=C/C=C/1C [Compound 109, Everolimus-azide]	1		impact on IC50 (pS6) of conversion from Everolimus (splenocytes, pS6 assay): no impact on IC50
CC(C)[C@H](N)C(=O)N[C@@H](CCCNC(N)=O)C(=O)NCCC(=O)N1Cc2ccccc2C#Cc2ccccc21 [Compound 124, Val-Cit-DBCO]	150		
CCCCNC(=O)[C@H](CCCNC(N)=O)NC(=O)[C@@H](NC(=O)CO[C@@H]1CC[C@@H](C[C@@H](C)[C@@H]2CC(=O)[C@H](C)/C=C(\C)[C@@H](O)[C@@H](OC)C(=O)[C@H](C)C[C@H](C)/C=C/C=C/C=C(\C)[C@@H](OC)CC3CC[C@@H](C)[C@@](O)(O3)C(=O)C(=O)N3CCCCC3C(=O)O2)C[C@H]1OC)C(C)C (stereo partly drawn) [Compound 141, Everolimus -Val-Cit-nBu]	30		fold reduction in IC50 potency (pS6) relative to Everolimus (splenocytes, pS6 assay): 30 fold
CO[C@H]1C[C@@H]2CC[C@@H](C)[C@@](O)(O2)C(=O)C(=O)N2CCCC[C@H]2C(=O)O[C@H]([C@H](C)C[C@@H]2CC[C@@H](OCCO)[C@H](OC)C2)CC(=O)[C@H](C)/C=C(\C)[C@@H](O)[C@@H](OC)C(=O)[C@H](C)C[C@H](C)/C=C/C=C/C=C/1C [Everolimus]			IC50 (Mus musculus, Splenocyte): 1 nM
CO[C@H]1C[C@@H]2CC[C@@H](C)[C@@](O)(O2)C(=O)C(=O)N2CCCC[C@H]2C(=O)O[C@H]([C@H](C)C[C@@H]2CC[C@@H](O)[C@H](OC)C2)CC(=O)[C@H](C)/C=C(\C)[C@@H](O)[C@@H](OC)C(=O)[C@H](C)C[C@H](C)/C=C/C=C/C=C/1C [Rapamycin]	1		
Everolimus -N3-DBCO-COOH [Compound 142]		16	fold reduction in IC50 potency (pS6) relative to Everolimus (splenocytes, pS6 assay): 16 fold
OH-PEG24-VZQLQPFPQPELPYPQPQLPYPQPQPFR-SPVZ(X-DBCO)-Ahx-WWK(ZV-Everolimus)WW [Compound 144]		13	pS6 IC50 compared to matched peptide antigen conjugates using an amide based linkage (Compound 143 and 145) (splenocytes, pS6 assay): more potent IC50
OH-PEG24-VZQLQPFPQPELPYPQPQLPYPQPQPFR-SPVZ-(X DBCO)-Ahx-WWK(Everolimus)WW [Compound 143]		150	
OH-PEG24-VZQLQPFPQPELPYPQPQLPYPQPQPFR-SPVZK(DBCO-N3)-Everolimus [Compound 145]		185	
OH-PEG24-VZQLQPFPQPELPYPQPQLPYPQPQPFR-SPVZX(DBCO-Ahx-ZV-Everolimus) [Compound 146]		74	pS6 IC50 compared to matched peptide antigen conjugates using an amide based linkage (Compound 143 and 145) (splenocytes, pS6 assay): more potent IC50
Torin-1-C3-COOH [Compound 123]		> 500	

— patent US12642851B2, “Self-assembling nanoparticles” (Barinthus Biotherapeutics North America, Inc., priority 2022, dated 2026)
